In brackets after ≈: the same amount, converted by molar mass.
Legend:
[1] = molecular target: T1, Bromodomain-containing protein 4 (Homo sapiens, UniProt O60885); assay: Inhibition of BRD4 BD2 (unknown origin) measured by TR-FRET assay
[2] = molecular target: T1, Bromodomain-containing protein 4; assay: Inhibition of BRD4 BD1 (unknown origin) measured by TR-FRET assay
[3] = Artificial membrane permeability of the compound; assay type: ADME; settings: PAMPA; read-out: permeability
C-C motif chemokine 2 = C-C motif chemokine 2 (Homo sapiens, UniProt P13500); assay: Inhibition of MCP-1 in LPS-stimulated human whole blood incubate for 24 hrs by immuno assay; assay type: tissue-based
[4] = Lipophilicity, logD of compound at pH 7.4 by Chromatography; assay type: physicochemical; settings: buffer
[5] = Solubility of the compound in saline by CLND method; assay type: physicochemical
[6] = Intrinsic clearance in dog hepatocytes incubated upto 45 mins by LC-MS/MS analysis; assay type: ADME, cell-based, Canis lupus familiaris, Hepatocyte; settings: 0.75 h
[7] = Intrinsic clearance in rat hepatocytes after 60 mins by LC-MS/MS analysis; assay type: ADME, cell-based, Hepatocyte; settings: 1 h
[8] = Intrinsic clearance in human hepatocytes measured after 120 mins by LC-MS/MS analysis; assay type: ADME, cell-based, Hepatocyte; settings: 2 h

Chain of C-C motif chemokine 2 (P13500 whole entry): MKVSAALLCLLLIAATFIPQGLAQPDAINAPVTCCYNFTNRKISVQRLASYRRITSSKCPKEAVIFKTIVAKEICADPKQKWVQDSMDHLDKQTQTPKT

Compound	IC50 [1]	IC50 [2]	Papp [3]	IC50 (C-C motif chemokine 2)	chromatographic logD [4]	solubility kinetic [5]	CLH [6]	CLH [7]	CLH [8]
CC(=O)N1CCCc2ccccc21	126000 nM	251000 nM							
Cc1noc(C)c1-c1ccccc1	158000 nM	50100 nM							
COC[C@@H](C)n1c(C2CCOCC2)nc2cnc3cc(-c4c(C)noc4C)c(OC)cc3c21	126 nM	39.8 nM							
CCS(=O)(=O)c1ccc2c(c1)C(C(N)=O)=CN(C)C(=O)[C@@H]2C	3160 nM	1580 nM	1 ×10⁻⁶ cm/s	2000 nM	1.1	82 µg/mL (≈ 254 µM)			
CCOc1ccc2c(c1)C(c1cn[nH]c1)=CN(C)C(=O)[C@@H]2C	3.98 nM	6.31 nM	37 ×10⁻⁶ cm/s	25.1 nM	3.4	≥ 115 µg/mL			
CCOc1ccc2c(c1)C(c1cn(C)cn1)=CN(C)C(=O)[C@@H]2C	25.1 nM	31.6 nM	69 ×10⁻⁶ cm/s	50.1 nM	3.6	117 µg/mL (≈ 376 µM)			
CCS(=O)(=O)c1ccc2c(c1)C(c1cnn(C)c1)=CN(C)C(=O)[C@@H]2C	79.4 nM	39.8 nM	14.5 ×10⁻⁶ cm/s	39.8 nM	2.8	≥ 222 µg/mL	< 0.65 mL/min/g	2.44 mL/min/g	< 0.45 mL/min/g
COCCOc1ccc2c(c1)C=CN(C)C(=O)[C@@H]2C	794 nM	316 nM	84 ×10⁻⁶ cm/s	1000 nM	4	≥ 128 µg/mL			
CCS(=O)(=O)c1ccc2c(c1)C(C)=CN(C)C(=O)[C@@H]2C	251 nM	79.4 nM	15 ×10⁻⁶ cm/s	158 nM	3.4	≥ 131 µg/mL	0.77 mL/min/g	1.18 mL/min/g	< 0.45 mL/min/g
C[C@H]1C(=O)N(C)C=Cc2cc(CCO)ccc21	1580 nM	398 nM	24 ×10⁻⁶ cm/s	1000 nM	2.6	≥ 108 µg/mL			
COc1cc2c(cc1OC)[C@H](C)C(=O)N(C)C=C2	50100 nM	12600 nM			3.4				
COc1cc2c(cc1OC)[C@@H](C)C(=O)N(C)CC2	15800 nM	3980 nM			2.6				
COc1cc2c(cc1OC)CC(=O)N(C)C=C2	10000 nM	2000 nM			2.6				
COc1ccc2c(c1)C=CN(C)C(=O)[C@@H]2C	1580 nM	631 nM	88 ×10⁻⁶ cm/s		4.3				
Cc1nnc(C)n1-c1ccccc1	> 50100 nM	> 50100 nM							
Cc1nc(C2=CN(C)C(=O)[C@H](C)c3ccc(OCCO)cc32)c[nH]1	31.6 nM	20 nM	< 0.3 ×10⁻⁶ cm/s	39.8 nM	1.5	≥ 185 µg/mL			
C[C@H]1C(=O)N(C)C=Cc2cc(C(O)CO)ccc21 (some centres not stated)	2000 nM	398 nM	2.7 ×10⁻⁶ cm/s	1000 nM	1.1	≥ 101 µg/mL			
C[C@H]1C(=O)N(C)C=C(c2cnn(C)c2)c2cc(C(CO)CO)ccc21	100 nM	31.6 nM	< 0.3 ×10⁻⁶ cm/s	31.6 nM	1.4	≥ 208 µg/mL			

Compound	IC50 [1]	IC50 [2]	Papp [3]	IC50 (C-C motif chemokine 2)	chromatographic logD [4]	solubility kinetic [5]	CLH [6]	CLH [7]	CLH [8]
C[C@H]1C(=O)N(C)C=Cc2cc(CN3CCOCC3)ccc21	631 nM	158 nM	77.5 ×10⁻⁶ cm/s	398 nM	3.3	≥ 142 µg/mL	3.37 mL/min/g	23.76 mL/min/g	< 0.45 mL/min/g
C[C@H]1C(=O)N(C)C=Cc2cc(C(CO)CO)ccc21	2000 nM	398 nM	3 ×10⁻⁶ cm/s	631 nM	1.2	≥ 209 µg/mL			
COc1cc2c(cc1OC)[C@H](C)C(=O)N(C)CC2	158000 nM	63100 nM			2.5				
CCc1ccc2c(c1)C=CN(C)C(=O)[C@@H]2C	631 nM	200 nM	73 ×10⁻⁶ cm/s		5.9				
CCOc1ccc2c(c1)C(c1c[nH]c(C)n1)=CN(C)C(=O)[C@@H]2C	20 nM	12.6 nM	40 ×10⁻⁶ cm/s	15.8 nM	3.1	≥ 135 µg/mL			
C[C@H]1C(=O)N(C)C=Cc2cc(OC(CO)CO)ccc21	1260 nM	398 nM	4.2 ×10⁻⁶ cm/s	631 nM	1.3	≥ 142 µg/mL			
Cc1cc(-c2ccccc2)cn(C)c1=O	10000 nM	3160 nM							
C[C@H]1C(=O)N(C)C=Cc2cc(CC3CCOCC3)ccc21	316 nM	63.1 nM	71 ×10⁻⁶ cm/s	631 nM	5.4	≥ 111 µg/mL			
C[C@H]1C(=O)N(C)C=Cc2cc(CN3CCCC3)ccc21	7940 nM	501 nM	36 ×10⁻⁶ cm/s	1580 nM	1.5	≥ 97 µg/mL			
CCOc1ccc2c(c1)C(c1c[nH]cn1)=CN(C)C(=O)[C@@H]2C	10 nM	10 nM	46 ×10⁻⁶ cm/s	50.1 nM	2.7	≥ 131 µg/mL			
CCOc1ccc2c(c1)C(n1ccnc1)=CN(C)C(=O)C2C (racemic)	25100 nM	39800 nM	58 ×10⁻⁶ cm/s		4.3	≥ 65 µg/mL			
CCOc1ccc2c(c1)C=CN(C)C(=O)C2C (racemic)	1000 nM	501 nM	70 ×10⁻⁶ cm/s	3160 nM	5	≥ 120 µg/mL			
CCOc1ccc2c(c1)C(c1cc[nH]n1)=CN(C)C(=O)C2C (racemic)	20 nM	31.6 nM	54 ×10⁻⁶ cm/s	126 nM	3.8	≥ 99 µg/mL			
CCS(=O)(=O)c1ccc2c(c1)C=CN(C)C(=O)[C@@H]2C (racemic)	1260 nM	200 nM	42 ×10⁻⁶ cm/s	398 nM	3.1				
CCS(=O)(=O)c1ccc2c(c1)C(c1ccccc1)=CN(C)C(=O)C2C (racemic)	501 nM	251 nM	100 ×10⁻⁶ cm/s	1580 nM	5.1	≥ 146 µg/mL			
CC1C(=O)N(C)C=Cc2cc(OCC(C)(C)O)ccc21 (racemic)	794 nM	251 nM	74 ×10⁻⁶ cm/s	631 nM	3.6	≥ 131 µg/mL			
CCS(=O)(=O)c1ccc2c(c1)C(c1ccncc1)=CN(C)C(=O)C2C (racemic)	1580 nM	631 nM	35 ×10⁻⁶ cm/s	1260 nM	2.8	128 µg/mL (≈ 359 µM)			
C[C@H]1C(=O)N(C)C=Cc2ccccc21 (racemic)	5010 nM	1580 nM	100 ×10⁻⁶ cm/s	5010 nM	4.3	≥ 86 µg/mL			
